{
  "source": "patent US20260345584A1",
  "about": "“METHODS AND PHARMACEUTICAL COMPOSITIONS FOR TREATING CHEMOTHERAPY-INDUCED PERIPHERAL NEUROPATHY WITH EG5 INHIBITORS” (UNIVERSITY OF MIAMI, priority 2023, published 2026)",
  "key": {"[1]": {"test_system": "microtubules in keratinocytes", "assay": "EB3-GFP microtubule growth dynamics in keratinocytes", "assay_type": "in vivo, zebrafish", "description": "Fish were anesthetized in 2-phenoxyethanol (1:1000) in Ringer's solution prior to imaging and mounted in 1.2% agarose. EB3-GFP and Tau-Bfp2 were imaged with a scan speed kept at the maximum level in single slice mode with […] for a total of 60s to capture microtubule dynamics. h2a:H2A-GFP time-lapse recordings were produced (Zeiss LSM880 AiryScan confocal microscope) with 1 μm sections recorded every 10 min for 12 hr using 800×800 pixels. All other live fish were imaged using 1024×1024 pixels.\nEB3-GFP tracking was done in Fiji using the MTrackJ plugin to trace microtubules over time and create Kymographs, measure the velocity, track length, and comet duration. Tracking was also performed using the Spots and Surface tools in Imaris. Settings were initially automatically detected to fit the fluorescence and subsequently modified manually for improved fit. Settings were maintained between treatment groups.\nTo validate this, microtubule growth dynamics were characterized in basal keratinocytes expressing the microtubule plus-end binding protein, EB3-GFP (courtesy of R. Koester) (Distel et al., 2010, The Journal of cell biology 191: 875-890). […] However, a small proportion of keratinocytes also harbored uniformly labelled EB3-positive microtubules, consistent with previous observations in murine axons (Kleele et al., 2015, Proceedings of the National Academy of Sciences of the United States of America 112: 7501-7506). […] This behavior therefore contrasts the curved conformation of stable dfMTs."}, "[2]": {"test_system": "HyPer oxidation in keratinocytes", "assay": "Compartmentalized HyPer oxidation (nucleus, plasma membrane) in keratinocytes", "assay_type": "in vivo, zebrafish", "conditions": "paclitaxel, alone or with EMD534085; for nuclear HyPer oxidation: nucleus", "description": "HyPer fluorescence was measured in the oxidized (505 nm) and unoxidized (420 nm) channels by using the region of interest (ROI) function in ZEN Black (Zeiss) whereby ROIs were selected inside highly magnified mitochondria (HyPer-mito), cytoplasm (HyPer-cyto) or the plasma membrane (HyPer-CAAX). The data was exported, and ratios determined in Excel. H2O2 measurements in zebrafish transiently injected with tp63:Hyper were manually performed by placing spot objects in Imaris 9.5.1 onto individual cells such that the spots extended to the lateral edges. Fluorescence intensities were measured inside the spots and 505 nm/420 nm ratios were subsequently calculated.\nThese findings supported a role for Eg5 in nuclear X-ROS production as a result of microtubule fasciculation and increased mechanical tension."}, "[3]": {"test_system": "caudal fin keratinocytes (dfMTs)", "assay": "dfMT formation (detyrosinated fasciculated looped microtubules) in zebrafish caudal fin keratinocytes", "assay_type": "in vivo", "description": "The stock solution was divided into 20-30 μl aliquots and stored at −20 °C until use (maximal 6 months). Immediately prior to use, paclitaxel was diluted in Ringer's solution and added to dechorionated larval zebrafish. The larval fish were placed individually or in small groups into wells of a 12-well plate containing the treatment solutions. The control group was 0.05% DMSO. Plates were incubated at 28.5 °C and protected from light. Treatment lengths are indicated in the Drawings, Description of the Drawings, and Examples where appropriate. […] EMD534085, Eg5 inhibitor (MedChemExpress, Cat. No. HY-15000) was diluted in 100% DMSO to make a 10 mM stock solution and stored at −20 °C. […] The solutions were exchanged every 48 hr.\nLarval fish were transferred into […] glass vials and fixed in 4% paraformaldehyde (PFA)/1× Phosphate-buffered saline (PBS) for 1.5 hr at room temperature, with gentle rocking. Following a 5-minute incubation in 1×PBS+0.1% Tween-20 (PBST), zebrafish were permeabilized in 1×PBS+0.1% Triton X-100 for 10-30 min. Larval fish were transferred into 2 ml reaction tubes and incubated in blocking buffer (1×PBST+5% BSA) for 30 min at room temperature, with rocking. Larval fish were further incubated overnight in antibody solution (Millipore Sigma, Cat. No. AB3201, 1:300 rabbit anti-GluTub; Sigma, Cat No. T6793, 1:500 mouse anti-acetylated tubulin) in blocking buffer at 4 °C, on a rotator. The next morning, larval fish were transferred into 6-well plates and washed 4×15 min in 1×PBST at room temperature, with rocking. This was followed by incubation in secondary antibody (goat anti-rabbit Cy5, Abcam, Cat. No. ab97077; goat anti-mouse Cy3, Abcam, Cat. No. ab97035) and 1:10,000 Hoechst 33342 (ThermoFisher Scientific, Cat. No. 62249, 20 mM solution) in blocking buffer for 1 hr at room temperature, with rocking. Fish were covered to avoid bleaching. Fish were washed for 4×15 min in 1×PBST at room temperature, with rocking, and immediately mounted for imaging on glass bottom petri dishes (Spectrum Laboratory Products, Cat. No. 750-10403-UE) using 1% agarose (Thermo Fisher Scientific, Cat. No. 16520050). A 1:200 dilution was used for mouse alpha-tubulin antibody (Proteintech, Cat. No. 66031-1) and a 1:1,000 dilution of donkey anti-mouse IgG Alexa488 (ThermoFisher Scientific, Cat. No. A-21202) for secondary detection. For Nox1 immunostaining, a 1:300 dilution of primary antibody (Anti-NOX1 Rabbit Polyclonal Antibody, Avantar, Cat. No. 102164-796) and a 1:1,000 dilution of secondary goat anti-rabbit Cy2 (Abcam, Cat. No. ab6940) antibody was used. Eg5 antibody (Abcam, Cat. No. 61199) was used at a 1:100 and secondary goat anti-rabbit Cy2 (Abcam, Cat. No. ab6940) at 1:1,000 dilution.\nCRISPR oligos targeting kif11 were designed using the IDT CRISPR design tool (https://www.idtdna.com/site/order/designtool/index/CRISPR_CUSTOM). The oligo (5′-[…] (SEQ ID NO: 21) was designed to anneal within exon 5 of 23 exons total in zebrafish kif11 with expected mutations ~ position 270 bp in the sequenced region using the following primers for PCR amplification: Fwd 5′-[…]-3′ (SEQ ID NO: 22) and Rev 5′-[…]-3′ (SEQ ID NO: 23). The forward primer was used for sequencing and yielded deletions in transiently injected embryos, as shown in example below in which single zebrafish were sequenced (FIG. 10).\nThe CRISPR oligo was injected using the Alt-R system (IDT, https://www.idtdna.com/pages/technology/crispr/crispr-genome-editing/Alt-R-systems/cas9), which has provided highly reliable and efficient zebrafish knockout results as used herein. The IDT-recommended protocol (below) was used for CRISPR oligo preparations. Fertilized eggs were injected ~15 minutes post fertilization with CRISPR oligos to ensure maximal efficiency.\nCell counting in the caudal fin was performed in three 100 μm^2 boxes in the dorsal, medial and ventral caudal fin (~100 μm from the edge). […]"}},
  "data": [
    {"smiles": "CN(C)CCNC(=O)NC[C@H]1CC[C@@H]2[C@H](O1)c1cc(C(F)(F)F)ccc1N[C@H]2c1ccccc1", "note": "[EMD534085]", "values": [
      {"measurement": "paclitaxel-dependent microtubule growth dynamics", "setting": "[1]; EMD534085 with 22 μM paclitaxel", "result": "did not alter the effects induced by paclitaxel alone"},
      {"measurement": "nuclear HyPer oxidation", "setting": "[2]", "result": "Nuclear HyPer oxidation was reduced upon co-administration of EMD534085"},
      {"measurement": "plasma membrane HyPer oxidation", "setting": "[2]", "result": "without effects on plasma membrane oxidation"},
      {"measurement": "animals with dfMTs", "setting": "[3]; 25 μM EMD534085 alone", "result": 0, "unit": "%"},
      {"measurement": "number of dfMT-harboring keratinocytes per animal", "setting": "[3]; EMD534085 alone, 96 hr", "result": "0±0", "unit": "cells/animal"}
    ]},
    {"smiles": "CC(=O)O[C@H]1C(=O)[C@@]2(C)[C@H]([C@H](OC(=O)c3ccccc3)[C@]3(O)C[C@H](OC(=O)[C@H](O)[C@@H](NC(=O)c4ccccc4)c4ccccc4)C(C)=C1C3(C)C)[C@]1(OC(C)=O)CO[C@@H]1C[C@@H]2O", "note": "[paclitaxel]", "values": [
      {"measurement": "keratinocytes with uniform EB3 labelling", "setting": "[1]; 22 μM paclitaxel, 96 hr", "result": 20.13, "unit": "%"},
      {"measurement": "comet duration", "setting": "[1]; paclitaxel, 3 hr", "result": "not affected"},
      {"measurement": "growth velocity and track length of microtubules", "setting": "[1]; paclitaxel, 3 hr", "result": "decreased the growth velocity and track length of microtubules"},
      {"measurement": "keratinocytes with uniform EB3 labelling", "setting": "[1]; paclitaxel, 3 hr", "result": 19.29, "unit": "%"},
      {"measurement": "keratinocytes with uniform EB3 labelling", "setting": "[1]; paclitaxel, 48 hr", "result": 10.09, "unit": "%"},
      {"measurement": "linearity of microtubules", "setting": "[1]; paclitaxel, 48 hr and 96 hr", "result": "further enhanced the linearity"},
      {"measurement": "nuclear HyPer oxidation", "setting": "[2]", "result": "increased oxidation within the nucleus"},
      {"measurement": "plasma membrane HyPer oxidation", "setting": "[2]", "result": "not at the plasma membrane"},
      {"measurement": "dfMT-positive keratinocytes", "setting": "[3]; 100 nM paclitaxel", "result": "0.4±0.21 dfMT-positive keratinocytes/100 μm^2"},
      {"measurement": "animals with dfMTs", "setting": "[3]; 100 nM paclitaxel, alone or with 25 μM EMD534085", "result": 20, "unit": "%"},
      {"measurement": "number of dfMT-harboring keratinocytes per animal", "setting": "[3]; 100 nM paclitaxel, alone or with 25 μM EMD534085, 96 hr", "result": "0.4±0.21", "unit": "cells/animal"},
      {"measurement": "animals with dfMT", "setting": "[3]; 22 μM paclitaxel, 48 hr", "result": "~ 45%"},
      {"measurement": "keratinocytes with dfMTs", "setting": "[3]; 22 μM paclitaxel, 48 hr", "result": "3.64±1.28", "unit": "keratinocytes/100 μm^2"},
      {"measurement": "keratinocytes with dfMTs", "setting": "[3]; 22 μM paclitaxel, 96 hr", "result": "7.7±1.6", "unit": "keratinocytes/100 μm^2"},
      {"measurement": "animals with dfMT", "setting": "[3]; 22 μM paclitaxel, 96 hr (FIG. 1I)", "result": "~ 90%"},
      {"measurement": "animals with dfMTs", "setting": "[3]; 22 μM paclitaxel, alone or with 25 μM EMD534085", "result": 65.22, "unit": "%"},
      {"measurement": "number of dfMT-harboring keratinocytes per animal", "setting": "[3]; 22 μM paclitaxel, alone or with 25 μM EMD534085, 96 hr", "result": "6.957±1.49", "unit": "cells/animal"},
      {"measurement": "dfMT presence", "setting": "[3]; 3 hr paclitaxel", "result": "never"}
    ]}
  ]
}
